# From patent US20150057465A1, “CONTROL OF GROWTH-INDUCTION-PRODUCTION PHASES” (OPX BIOTECHNOLOGIES, INC., priority 2013, published 2015)
# Entries after “also recorded” stand apart in the source; their conditions may differ. Read-outs that look alike come from different tables or passages of the source.
# B1: rhtA: chemical exporter from E. coli characterized for homoserine transport; mutant rhtA(P2S), SEQ ID NO. 30, 31, overexpressed (protein)
# chain: MSGSLRKMPVWLPIVILLVAMASIQGGASLAKSLFPLVGAPGVTALRLALGTLILIAFFKPWRLRFAKEQRLPLLFYGVSLGGMNYLFYLSIQTVPLGIAVALEFTGPLAVALFSSRRPVDFVWVVLAVLGLWFLLPLGQDVSHVDLTGCALALGAGACWAIYILSGQRAGAEHGPATVAIGSLIAALIFVPIGALQAGEALWHWSVIPLGLAVAILSTALPYSLEMIALTRLPTRTFGTLMSMEPALAAVSGMIFLGETLTPIQLLALGAIIAASMGSTLTVRKESKIKELDIN
# notes: chemical exporter from E. coli characterized for homoserine transport; 30, 31, overexpressed
# What was measured:
# E. coli strains = assay: Growth inhibition of E. coli strains grown in the presence of 3-HP; format: cell-based
# E. coli ACCase = E. coli ACCase (Escherichia coli, UniProt P0A9Q5+P0ABD5+P0ABD8+P24182); details: for effect of salt on ACCase activity: E. coli ACCase, dose-dependent studies, FIG. 4; for decrease of the activity of the ACCase enzyme: relative to control (FIG. 4)
# Protocol: Levels of greater than 0.66M (60 g/L) are expected to be present for commercially viable commercial production of 3-HP.
# Each gene was amplified by PCRs with Pfu Ultra II HS using the manufacturer's instructions, and the PCR products were purified using the Zymo PCR Cleanup kit. Concentrations of products were measured using the Nanodrop spectophotometer. The Gibson Assembly kit (NEB) was used to construct plasmids expressing the ACCase subunit genes as directed by the manufacturer. The effect of NH4-3-HP and NH4Cl on H. elongata ACCase was tested and compared to the E. coli ACCase.
# H. elongata ACCase = assay: Salt inhibition of H. elongata ACCase activity; format: biochemical, Halomonas elongata; details: ACCase from the halophile H. elongata, compared to E. coli ACCase, FIG. 4
# Protocol: Accordingly, the genes encoding the accA, accB, accC, accD of H. elongata described in Table 1 were synthesized for expression in E. coli using codons optimized for this organism and supplied individually on pUC57 plasmids without promoters. Synthetic operons comprising the subunits were assembled using the Gibson assembly method.
# Concentrations of products were measured using the Nanodrop spectophotometer.
# 3HP titer = assay: 1 L fermentation with overexpression of rhtA exporter, 3HP titer; format: cell-based, E. coli; details: compared to control plasmid without rhtA, FIG. 7
# Protocol: A known chemical exporter from E. coli that has been previously characterized for homoserine transport, rhtA, was evaluated for increased production of 3-HP. A mutant version of the exporter, rhtA(P2S) (SEQ ID NO. 30 nucleic acid, SEQ ID NO. 31 protein) was synthesized behind the PtpiA promoter and inserted into the pTRC-PyibD-MCR plasmid behind a terminator using the Gibson Assemply kit (NEB) according to manufacturer's instructions. The effects of overexpression of rhtA were evaluated in 1 L fermentation compared to the control plasmid without rhtA. […] Construction of plasmids expressing another putative transporter, ydcO (SEQ ID NO. 32 nucleic acid, SEQ ID NO. 33 protein) is carried out in the same manner.
# [1] = salts of 3-HP levels near 0.66M
# E. coli ACCase, sequence (P0A9Q5 whole entry): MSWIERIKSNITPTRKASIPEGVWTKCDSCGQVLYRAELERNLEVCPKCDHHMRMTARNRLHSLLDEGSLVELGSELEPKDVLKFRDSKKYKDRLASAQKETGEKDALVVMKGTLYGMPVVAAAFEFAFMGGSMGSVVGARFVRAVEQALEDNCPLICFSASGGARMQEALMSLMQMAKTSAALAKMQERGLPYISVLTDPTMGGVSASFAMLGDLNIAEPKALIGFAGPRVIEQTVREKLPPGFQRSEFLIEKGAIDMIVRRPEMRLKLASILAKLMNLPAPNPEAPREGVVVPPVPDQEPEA
# E. coli ACCase, sequence (P0ABD5 whole entry): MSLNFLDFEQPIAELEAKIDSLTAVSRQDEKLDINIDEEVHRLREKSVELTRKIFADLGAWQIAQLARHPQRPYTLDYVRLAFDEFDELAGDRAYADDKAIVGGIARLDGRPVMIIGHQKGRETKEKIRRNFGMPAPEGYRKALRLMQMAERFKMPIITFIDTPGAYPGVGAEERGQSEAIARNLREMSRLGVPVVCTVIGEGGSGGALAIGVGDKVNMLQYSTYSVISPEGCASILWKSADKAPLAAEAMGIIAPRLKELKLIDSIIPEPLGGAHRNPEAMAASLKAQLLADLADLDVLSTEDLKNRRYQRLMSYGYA
Molecule,effect of salt on ACCase activity (E. coli ACCase),decrease of the activity of the ACCase enzyme (E. coli ACCase; [1]),effect of salt on ACCase activity (H. elongata ACCase),decrease of the activity of the ACCase enzyme (E. coli ACCase; salt levels near 0.44M),further results
"O=C(O)CCO [3-HP, 3-hydroxypropionic acid]",–,–,–,–,3-HP level at which growth inhibition was demonstrated (E. coli strains): ≥ 20 g/L
N.O=C(O)CCO [NH4-3-HP],significantly inhibited,approximately 80%,less affected,–,–
Cl.N [NH4Cl],significantly inhibited,–,less affected,approximately 80%,–
O=C([O-])CCO.[Na+] [Na-3-HP],inhibitory effects,approximately 80%,–,–,–
[Cl-].[Na+] [NaCl],inhibitory effects,–,–,approximately 80%,–
B1,–,–,–,–,3HP titer (3HP titer): improved production of 3-HP; also recorded: significant improvement in 3HP titer
